The subject of experiment [1] is non-transformed human fibroblasts hFF3. The experiment can be described thus: MTT cytotoxicity assay, hFF3. Particulars: HFF-3, 24 h, read-out: IC50 hFF3 (fibroblast). It is filed as cell-based. The text has this: (§1) According to our previous data and data published by other research groups, chemical transformations of bile acids can greatly improve their antitumor potential. Thus, as the first step of evaluation of the biological activities of our novel DCA derivatives we assessed their effects on tumor cell viability. The cytotoxicity of the compounds was investigated with respect to a panel of cultured cell lines, including human duodenal HuTu-80, hepatocellular HepG2, cervical KB-3-1 and lung A549 carcinomas as well as murine macrophage RAW264.7 and non-transformed human fibroblasts hFF3 by MTT assay.
Human duodenal carcinoma HuTu-80 cells, human hepatocellular carcinoma HepG2 cells, human cervical carcinoma KB-3-1 cells, human lung carcinoma A549 cells were obtained from the Russian Cell Culture Collection (Institute of Cytology, RAS, St. Petersburg, Russia). Non-transformed human fibroblasts hFF3 were kindly provided by Dr. Olga Koval (Institute of Chemical Biology and Fundamental Medicine, SB RAS, Novosibirsk, Russia). RAW264.7 macrophages were kindly provided by Prof. Dr. Dmitry Kuprash (Engelhardt Institute of Molecular Biology, RAS, Moscow, Russia). The cells were cultured in DMEM (Sigma-Aldrich Inc., St. Louis, MO, USA) supplemented with 10% (v/v) heat-inactivated fetal bovine serum (FBS) (BioloT, St. Petersburg, Russia), 100 U/mL penicillin (ICN Biomedicals Inc., Costa Mesa, CA, USA), 100 µg/mL streptomycin and 0.25 µg/mL amphotericin; additionally, in the case of RAW264.7 cells, concentration of glucose in the medium was increased up to 4.5 mg/mL. The cells were incubated at 37 °C in 5% CO2 and 95% air (hereafter referred to as standard conditions). […]
Cells were seeded in triplicate in 96-well plates at a density of 5 × 10^3 (HuTu-80, HepG2, KB-3-1, hFF3), 10^4 (A549) or 5 × 10^4 (RAW264.7) cells per well. […] The crystals of formazan forming within live cells were solubilized with DMSO and the absorbance was measured in a Multiscan RC plate reader (Thermo LabSystems, Helsinki, Finland) at a test and reference wavelengths of 570 nm and 620 nm, respectively. […]
In general terms: Formazan colour is commonly taken as a measure of viable cells.

The subject of experiment [2] is HepG2 cells. The experiment can be described thus: MTT cytotoxicity assay, HepG2. It is filed as cell-based, human.
From the text: as §1
(§2) Human duodenal carcinoma HuTu-80 cells, human hepatocellular carcinoma HepG2 cells, human cervical carcinoma KB-3-1 cells, human lung carcinoma A549 cells were obtained from the Russian Cell Culture Collection (Institute of Cytology, RAS, St. Petersburg, Russia). Non-transformed human fibroblasts hFF3 were kindly provided by Dr. Olga Koval (Institute of Chemical Biology and Fundamental Medicine, SB RAS, Novosibirsk, Russia). RAW264.7 macrophages were kindly provided by Prof. Dr. Dmitry Kuprash (Engelhardt Institute of Molecular Biology, RAS, Moscow, Russia). The cells were cultured in DMEM (Sigma-Aldrich Inc., St. Louis, MO, USA) supplemented with 10% (v/v) heat-inactivated fetal bovine serum (FBS) (BioloT, St. Petersburg, Russia), 100 U/mL penicillin (ICN Biomedicals Inc., Costa Mesa, CA, USA), 100 µg/mL streptomycin and 0.25 µg/mL amphotericin; additionally, in the case of RAW264.7 cells, concentration of glucose in the medium was increased up to 4.5 mg/mL. The cells were incubated at 37 °C in 5% CO2 and 95% air (hereafter referred to as standard conditions). DCA derivatives were dissolved in DMSO to yield stock solutions of 10 mmol/L and stored at −20 °C prior to use.
(§3) Cells were seeded in triplicate in 96-well plates at a density of 5 × 10^3 (HuTu-80, HepG2, KB-3-1, hFF3), 10^4 (A549) or 5 × 10^4 (RAW264.7) cells per well. Cells were incubated under standard conditions for 24 h and then they were treated with varying doses of investigated derivatives for subsequent 24 h. Then 10 µL of MTT solution (5 mg/mL) were added to each wells and cells were incubated for an additional 2 h under standard conditions. The crystals of formazan forming within live cells were solubilized with DMSO and the absorbance was measured in a Multiscan RC plate reader (Thermo LabSystems, Helsinki, Finland) at a test and reference wavelengths of 570 nm and 620 nm, respectively. […] To perform SAR analysis, hierarchical clustering of compounds based on their IC50 values was fulfilled with Euclidean distance by using the Morpheus tool (https://software.broadinstitute.org/morpheus/), a platform designed for visualization and analysis of data in a matrix format. Heatmap, containing compounds’ SI values, were constructed by using the Excel 2010 software (Microsoft, Redmond, WA, USA). In order to reveal whether ROS participate in the induction of cell death by compound 9, HuTu-80 cells cultured in 96-well plate were pretreated by NAC at 2 mM for 1 h. Thereafter, the medium was replaced by fresh medium with compound 9 at 8 µM and the cells were incubated with subsequent 24 h under standard conditions. After this time period, the curves of cytotoxicity of compound 9 in the presence or absence of NAC were compared.

The test system of experiment [3] is KB-3-1 cells. The experiment can be described thus: MTT cytotoxicity assay, KB-3-1. It is filed as cell-based, human.
From the text: as §1, §2, §3

Experiment [4] concerns HuTu-80 cells. The experiment can be described thus: cells. The class given is cell-based.
From the text: as §1, §2, §3

Experiment [5] relates to HuTu-80 cells. In words: Autophagy detection (MDC staining). The class given is cell-based, human. Particulars: 8 µM, 24 h, versus control. The source says: It is known that bile acids can induce cell death independently of apoptosis by activation of autophagy. Autophagy is a regulated lysosome-dependent pathway involved in the degradation of damaged and obsolete intracellular components. During autophagy, these components are isolated by a bilayer membrane resulting in autophagosome formation. Autophagosomes than fuse with lysosomes that leads to enzymatic degradation of their contents. During prolonged and strong stress, cells can autophagocytize up to a half of their cytoplasm that leads to a collapse of cell functions and, as a result, cell death. Monodansylcadaverin (MDC) is an autofluorescent amine that specifically accumulates within autophagic vacuoles and, therefore, can be used as a marker of autophagy.
HuTu-80 cells were seeded in 6-well plates at a density of 5 × 10^5 cells per well and incubated for 24 h under standard conditions. Then the cells were treated by compound 9 at 8 µM for 24 h, collected by trypsinization, washed with PBS, suspended with 50 µM of MDC at 37 °C for 15 min and analyzed using NovoCyte Flow Cytometer (ACEA Biosciences Inc.). In order to evaluate the type of autophagy (cytoprotective or cytodestructive), HuTu-80 cells were seeded in 96-well plate at a density of 5 × 10^3 cells/well for 24 h followed by co-treatment with compound 9 at 8 µM and chloroquine, an autophagy inhibitor, at 50 µM for 24 h. […]

The test system of experiment [6] is A549 cells. The experiment can be described thus: MTT cytotoxicity assay, A549. It is filed as cell-based, human.
From the text: as §1, §2, §3

For experiment [7], the system named is caspase-3/7 in HuTu-80 cells. In words: Caspase-3/-7 activity (Caspase-Glo 3/7). It is filed as cell-based, human. Particulars: 8 µM, 18 h and 24 h time points. The method, then: In the next step of the study our attention was focused on understanding the ability of compound 9 to activate caspases—a family of cysteine proteases, being critical mediators of apoptosis. In order to perform this, we evaluated the effect of compound 9 on activity of key executioner caspases-3 and -7 responsible for proteolytic cleavage of many proteins in the culminating step of cell death.
The caspase-3/-7 activity in HuTu-80 cells was assessed by using Caspase-Glo® 3/7 Assay kit (Promega, Madison, WI, USA) according to the manufacturer’s instructions. Briefly, the cells were seeded in white-walled 96-well plates at a density of 10^4 cells/well for 24. After incubation, cells were treated with compound 9 at 8 µM for 6, 18 or 24 h and then 100 µL of Caspase-Glo® 3/7 reagent was added to each well. The plate was carefully shaken for 30 sec on a plate mixer and afterwards incubated for 30 min at room temperature in the dark. The luminescence was detected using CLARIOstar plate reader (BMG Labtech, Ortenberg, Germany).

The term IC50 denotes the concentration that gives 50% inhibition.

As to `COC(=O)CC[C@@H](C)[C@H]1CC[C@H]2[C@@H]3CC[C@@H]4CC(O)(CNCCCO)CC[C@]4(C)[C@H]3CC(=O)[C@]12C` (stereo partly drawn) [Compound 9, Methyl 3-hydroxy-3-((3-hydroxypropylamino)methyl)-12-oxo-5β-cholan-24-oate], the IC50 was 33.3 ± 1.2 µM in experiment [1]; 7.3 ± 0.6 µM in experiment [2] (Homo sapiens, HepG2, MTT, 24 h, read-out: IC50 HepG2 (liver)); 22.8 ± 1.8 µM in experiment [3] (Homo sapiens, KB 3-1, MTT, 24 h, read-out: IC50 KB3-1 (cervix)); 4 ± 0.5 µM in experiment [4] (Homo sapiens, HuTu80, MTT, 24 h, read-out: IC50 HuTu-80 (duodenum)); 29 ± 3.5 µM in experiment [6] (Homo sapiens, A549, MTT, 24 h, read-out: IC50 A549 (lung)). In addition, the “Selectivity index HepG-2” value in experiment [2] (ratio IC50 hFF3 / IC50 HepG2) is 4.5. In experiment [3] (ratio IC50 hFF3 / IC50 KB-3-1), the “Selectivity index KB-3-1” value is recorded as 1.4. The “Selectivity index HuTu-80” value in experiment [4] (ratio IC50 hFF3 / IC50 HuTu-80) stood at 8.3. Moreover, in experiment [5], the “intensity of MDC-associated fluorescence” value is recorded as “significantly higher than in control”. Also, the “Selectivity index A549” value in experiment [6] (ratio IC50 hFF3 / IC50 A549) is listed as 1.1. Also, the caspase-3/7 activity entry in experiment [7] was “significantly increased”.
